Laboratory results reported in US10098881B2, “Compounds” (AUTIFONY THERAPEUTICS LIMITED, priority 2011, dated 2018).
Entries after “also recorded” stand apart in the source; their conditions may differ. Where two headings read alike, the source gives them in different places.

What was measured:
Male CD-1 mice = assay: Biological Example 2: psychostimulant (amphetamine)-induced hyperactivity in mice; conditions: for Locomotor activity (beam crosses): over 60 minutes, mean ± sem
[1] = Analysis of blood levels of Example 4 in study mice; format: in vivo; conditions: CD-1, whole blood, ip, mouse, 90 minutes after administration, n=3, mean [range], read-out: Blood concentration of Test Drug
Protocol: Blood samples were collected from a subset of study mice (n=3) at the end of the behavioural measurement (90 minutes post-dose of test drug), and assayed using a method based on protein precipitation with acetonitrile followed by HPLC-MS/MS analysis with an optimized analytical method. Since the stability of the analyte in blood and brain was unknown, Calibration standards (CS) and Quality control samples (QC) were prepared on the day of dosing and stored together with study samples. Study samples, CS, QC and blanks were spiked with rolipram as internal standard (IS). Study samples were analyzed in discrete batches together with CS, QC and blank samples.

[2] = tested on: "fast-firing" interneurons in the somatosensory cortex; assay: Recordings from identified fast-firing interneurons, trains of high frequency depolarising current pulses; format: cell-based, mouse; conditions: 1 microM, n=6; trains of depolarising pulses at 100, 200, 300 Hz; p<0.05 vs no drug; listed as Reference Example 9
Text: FIG. 2. Recordings made from identified “fast-firing” interneurons in the somatosensory cortex of the mouse.
Kv3.1 and Kv3.2 channels must activate and deactivate very rapidly in order to allow neurons to fire actions potentials at high frequency (Rudy and McBain, 2001, Trends in Neurosciences 24, 517-526). Slowing of activation is likely to delay the onset of action potential repolarisation; slowing of deactivation could lead to hyperpolarising currents that reduce the excitability of the neuron and delay the time before the neuron can fire a further action potential. Together these slowing effects on channel activation and deactivation are likely to lead to a reduction rather than a facilitation of the neurons ability to fire at high frequencies. Thus compounds that have this slowing effect on the Kv3.1 and/or Kv3.2 channels may slow neuronal firing.
The neurons are induced to fire at high frequencies by trains of high frequency depolarising current pulses at 100, 200, and 300 Hz. The ability of the neuron to fire an action potential on each pulse is determined. […] In the absence of drug (closed circles, n=9), the neurons maintained a spike probability of 1 up to 300 Hz.

[3] = target: T1, human Kv3.2 channels (hKv3.2) (Homo sapiens, UniProt Q96PR1); assay: Biological Example 1: hKv3.2 whole-cell currents, IonWorks Quattro planar array electrophysiology; format: cell-based; conditions: for Tauact mean: hKv3.2, -15 mV voltage step
T1 construct: expressed in transfected cells
T1 sequence (Q96PR1 1-638): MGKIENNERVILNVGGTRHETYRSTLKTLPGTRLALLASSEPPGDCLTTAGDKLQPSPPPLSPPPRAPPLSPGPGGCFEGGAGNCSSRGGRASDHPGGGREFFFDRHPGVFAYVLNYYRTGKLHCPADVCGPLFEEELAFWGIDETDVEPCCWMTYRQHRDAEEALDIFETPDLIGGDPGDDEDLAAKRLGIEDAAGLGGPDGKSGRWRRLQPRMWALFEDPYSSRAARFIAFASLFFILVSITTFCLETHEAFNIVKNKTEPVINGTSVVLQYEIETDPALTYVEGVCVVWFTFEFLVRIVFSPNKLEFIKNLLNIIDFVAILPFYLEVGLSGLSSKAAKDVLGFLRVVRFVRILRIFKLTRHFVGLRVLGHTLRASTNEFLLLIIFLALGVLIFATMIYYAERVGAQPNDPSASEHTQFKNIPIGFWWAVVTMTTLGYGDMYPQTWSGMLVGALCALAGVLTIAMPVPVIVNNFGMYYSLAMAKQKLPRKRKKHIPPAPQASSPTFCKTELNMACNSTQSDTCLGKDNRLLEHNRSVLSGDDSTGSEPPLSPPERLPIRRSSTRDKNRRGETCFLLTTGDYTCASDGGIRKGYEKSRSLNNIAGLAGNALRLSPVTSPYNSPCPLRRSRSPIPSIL
Text: The ability of the compounds of the invention to modulate the voltage-gated potassium channel subtypes Kv3.2 or Kv3.1 may be determined using the following assay. Analogous methods may be used to investigate the ability of the compounds of the invention to modulate other channel subtypes, including Kv3.3 and Kv3.4.
To assess compound effects on human Kv3.2 channels (hKv3.2), a stable cell line expressing hKv3.2 was created by transfecting Chinese Hamster Ovary (CHO)-K1 cells with a pClH5-hKv3.2 vector. Cells were cultured in DMEM/F12 medium supplemented by 10% Foetal Bovine Serum, lx non-essential amino acids (Invitrogen) and 500 ug/ml of Hygromycin-B (Invitrogen). Cells were grown and maintained at 37° C. in a humidified environment containing 5% CO2 in air.
The day of the experiment, cells were removed from the incubator and the culture medium removed. Cells were washed with 5 ml of Dulbecco's PBS (DPBS) calcium and magnesium free and detached by the addition of 3 ml Versene (Invitrogen, Italy) followed by a brief incubation at 37° C. for 5 minutes. The flask was tapped to dislodge cells and 10 ml of DPBS containing calcium and magnesium was added to prepare a cell suspension. The cell suspension was then placed into a 15 ml centrifuge tube and centrifuged for 2 min at 1200 rpm. After centrifugation, the supernatant was removed and the cell pellet re-suspended in 4 ml of DPBS containing calcium and magnesium using a 5 ml pipette to break up the pellet. Cell suspension volume was then corrected to give a cell concentration for the assay of approximately 3 million cells per ml.
Experiments were conducted at room temperature using IonWorks Quattro™ planar array electrophysiology technology (Molecular Devices Corp.) with PatchPlate™ PPC. Stimulation protocols and data acquisition were carried out using a microcomputer (Dell Pentium 4). Planar electrode hole resistances (Rp) were determined by applying a 10 mV voltage step across each well. These measurements were performed before cell addition. […] Following this, amphotericin-B solution was added to the intracellular face of the electrode to achieve intracellular access. Cells were held at −70 mV. Leak subtraction was conducted in all experiments by applying 50 ms hyperpolarizing (10 mV) prepulses to evoke leak currents followed by a 20 ms period at the holding potential before test pulses. From the holding potential of −70 mV, a first test pulse to −15 mV was applied for 100 ms and following a further 100 ms at −70 mV, a second pulse to 40 mV was applied for 50 ms. Cells were then maintained for a further 100 ms at −100 mV and then a voltage ramp from −100 mV to 40 mV was applied over 200 ms. Test pulses protocol may be performed in the absence (pre-read) and presence (post-read) of the test compound. Pre- and post-reads may be separated by the compound addition followed by a 3 minute incubation.
The intracellular solution contained the following (in mM): K-gluconate 100, KCl 54, MgCl2 3.2, HEPES 5, adjusted to pH 7.3 with KOH. Amphotericin-B solution was prepared as […] stock solution in DMSO and diluted to a final working concentration of 0.1 mg/ml in intracellular solution.
Compounds of the invention (or reference compounds such as N-cyclohexyl-N-[(7,8-dimethyl-2-oxo-1,2-dihydro-3-quinolinyl)methyl]-N′-phenylurea were dissolved in dimethylsulfoxide (DMSO) at a stock concentration of 10 mM. These solutions were further diluted with DMSO using a Biomek FX
Each dilution (1 μL) was transferred to another compound plate and external solution containing 0.05% pluronic acid (66 μL) was added. 3.5 μL from each plate containing a compound of the invention was added and incubated with the cells during the lonWorks Quattro™ experiment. The final assay dilution was 200 and the final compound concentrations were in the range 50 μM to 50 nM.

SMILES: CN1CCN(C2=Nc3cc(Cl)ccc3Nc3ccccc32)CC1 [Clozapine, reference compound]
- Locomotor activity (beam crosses) (Male CD-1 mice; AMPH 2 mg/kg i.p. + clozapine i.p. 30 min before (positive control), p<0.001 vs amphetamine alone): 1546 ± 420 beam crosses

SMILES: Cc1ccc(Oc2ncc(N3C(=O)NC(C)(C)C3=O)cn2)c2c1OCC21CC1 [Example 4, 5,5-dimethyl-3-[2-(7-methylspiro[2H-benzofuran-3,1′-cyclopropane]-4-yl)oxypyrimidin-5-yl]imidazolidine-2,4-dione]
- Locomotor activity (beam crosses) (Male CD-1 mice; AMPH 2 mg/kg i.p. + Example 4 3 mg/kg i.p. 30 min before): 10263 ± 2443 beam crosses
- Locomotor activity (beam crosses) (Male CD-1 mice; AMPH 2 mg/kg i.p. + Example 4 10 mg/kg i.p. 30 min before, p<0.05 vs amphetamine alone): 9015 ± 1413 beam crosses
- Locomotor activity (beam crosses) (Male CD-1 mice; AMPH 2 mg/kg i.p. + Example 4 30 mg/kg i.p. 30 min before, p<0.001 vs amphetamine alone): 4555 ± 922 beam crosses
- concentration at 90 min ([1]; Example 4 3 mg/kg i.p.): 98 ng/mL
- concentration at 90 min ([1]; Example 4 10 mg/kg i.p.): 244 ng/mL
- concentration at 90 min ([1]; Example 4 30 mg/kg i.p.): 2140 ng/mL

SMILES: CC(N)Cc1ccccc1 (stereo not drawn) [Amphetamine, amphetamine, reference compound]
- Locomotor activity (beam crosses) (Male CD-1 mice; amphetamine 2.0 mg/kg i.p. alone): 16190 ± 2394 beam crosses
- total locomotor activity (Male CD-1 mice; amphetamine alone, 2 mg/kg i.p.): large and significant increase

SMILES: CC[C@H]1NC(=O)N(c2ccc(Oc3cccc4c3C3(CC3)CO4)nc2)C1=O [RE9, reference compound]
- ability of the neurons to fire on each pulse (spike probability) [2]: reduces the ability of the neurons to fire; also recorded: unable to follow trains at the highest frequency
- Tauact mean ([3]; compound 0.2 μM (concentration giving ~0.3 nA current at end of pulse)): 50.1 ms
- Tauact ([3]; hKv3.2, each tested at a concentration that increased the Kv3.2 current to a similar level (~0.3 nA)): 50.1 ± 7.5 ms

SMILES: CC[C@@]1(C)NC(=O)N(c2cnc(Oc3ccc(C)c4c3C(C)(C)CO4)nc2)C1=O [Example 2, (5R)-5-ethyl-5-methyl-3-{2-[(3,3,7-trimethyl-2,3-dihydro-1-benzofuran-4-yl)oxy]-5-pyrimidinyl}-2,4-imidazolidinedione]
- Tauact mean ([3]; compound 1.6 μM (concentration giving ~0.3 nA current at end of pulse)): 14.8 ms

SMILES: CC[C@H]1NC(=O)N(c2cnc(Oc3ccc(C)c4c3C3(CC3)CO4)nc2)C1=O [Example 5, (5R)-5-ethyl-3-[2-(7-methylspiro[2H-benzofuran-3,1′-cyclopropane]-4-yl)oxypyrimidin-5-yl]imidazolidine-2,4-dione]
- Tauact mean ([3]; compound 0.8 μM (concentration giving ~0.3 nA current at end of pulse)): 31.5 ms

SMILES: CC[C@H]1NC(=O)N(c2ccc(Oc3ccc(C#N)c(OC(C)C)c3)nc2)C1=O [RE8, 4-({5-[(4R)-4-ethyl-2,5-dioxo-1-imidazolidinyl]-2-pyridinyl}oxy)-2-[(1-methylethyl)oxy]benzonitrile, reference compound]
- Tauact mean ([3]; compound 3.1 μM (concentration giving ~0.3 nA current at end of pulse)): 9.7 ms
